These results are taken from US20110190503A1, “Thiazolopyridin-2-yloxy-phenyl and thiazolopyrazin-2-yloxy-phenyl amines as modulators of leukotriene A4 hydrolase” (Janssen Pharmaceutical NV, priority 2008, published 2011).

The assay addresses T1, recombinant human LTA4 hydrolase (rhLTA4H) (Homo sapiens, UniProt P09960).
T1 construct: made in house; host or cells: Spodoptera frugiperda (Sf-9) cells, recombinant baculovirus (pFastBac1)
T1 sequence (P09960 1-611): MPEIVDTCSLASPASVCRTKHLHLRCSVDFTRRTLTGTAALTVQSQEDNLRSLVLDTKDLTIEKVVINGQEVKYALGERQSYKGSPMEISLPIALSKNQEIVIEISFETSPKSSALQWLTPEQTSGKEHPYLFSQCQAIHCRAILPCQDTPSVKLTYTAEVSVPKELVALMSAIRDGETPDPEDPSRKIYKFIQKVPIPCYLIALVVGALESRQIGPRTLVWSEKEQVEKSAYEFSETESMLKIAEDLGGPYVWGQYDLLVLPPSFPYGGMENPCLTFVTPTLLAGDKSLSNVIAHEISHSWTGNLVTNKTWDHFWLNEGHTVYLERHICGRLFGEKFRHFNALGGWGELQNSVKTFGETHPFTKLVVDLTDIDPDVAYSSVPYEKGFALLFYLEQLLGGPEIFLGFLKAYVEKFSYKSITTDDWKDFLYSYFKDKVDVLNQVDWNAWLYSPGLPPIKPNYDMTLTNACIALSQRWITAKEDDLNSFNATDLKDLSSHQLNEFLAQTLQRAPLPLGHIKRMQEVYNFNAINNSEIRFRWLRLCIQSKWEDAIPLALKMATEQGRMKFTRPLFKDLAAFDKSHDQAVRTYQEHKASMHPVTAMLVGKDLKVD
Description: Recombinant human LTA4 hydrolase assay for LTA4 hydrolase inhibitor activity. Type of assay: biochemical. Particulars: rhLTA4H, LTA4 substrate, LTB4 by immunoassay; single determination or average; read-out: IC50. On the procedure:
Assay 1: Recombinant Human LTA4 Hydrolase Assay for LTA4 Hydrolase Inhibitor Activity
Compounds of the present invention were tested for LTA4 hydrolase inhibitor activity against recombinant human LTA4 hydrolase (rhLTA4H). Vectors were prepared and used to express rhLTA4H essentially as follows: LTA4 hydrolase encoding DNA was amplified by polymerase chain reaction (PCR) using a human placental cDNA library as a template. […] The amplified 1.9 kb DNA fragment encoding LTA4 hydrolase was isolated and cloned into the pFastBac1 vector (Invitrogen). Recombinant baculovirus was generated as described by the manufacturer, and used to infect Spodoptera frugiperda (Sf-9) cells. […] The purified enzyme solution was adjusted to contain 0.29 mg/mL LTA4 hydrolase, 50 mM Tris (pH 8.0), 150 mM NaCl, 5 mM dithiothreitol, 50% glycerol, and EDTA-free Complete protease inhibitor cocktail (Roche).
LTA4 substrate was prepared from the methyl ester of LTA4 (Cayman Chemical) by treatment with 67 equiv of NaOH under nitrogen at rt for 40 min. The LTA4 substrate in its free acid form was kept frozen at −80° C. until needed. Each compound was diluted to different concentrations in assay buffer (from Assay Designs) containing 10% DMSO. A 25-μL aliquot of each compound dilution was incubated for 10 min at rt with an equal volume of assay buffer containing 10 ng of recombinant human LTA4H. The solution was then adjusted to 200 μL with assay buffer. […] Each reaction was carried out at rt for 30 min. The reaction was stopped by diluting 10 μL of the reaction mixture with 200 μL of assay buffer. LTB4 was quantified in the diluted sample by a commercially available enzyme-linked immunoassay (Cayman Chemical Co.), as recommended by the manufacturer. Positive controls, under essentially identical conditions but without addition of an inhibitor compound, and negative controls, containing all assay components except enzyme, were routinely run in each experiment. IC50 values were determined by nonlinear regression of the activity data at different compound concentrations using Graphpad Prism 4.0, one site binding competition.
The values presented here are the result of a single determination or an average of two or more determinations, as indicated in parentheses following each value. For compounds tested three or more times, the average value is followed by the standard deviation

Structures can show the parent of a compound that is named as a salt.

A word on the IC50: it is the concentration that inhibits the measured activity by half. Consider `CC(C)(CO)NC(=O)C1CCN(CCOc2ccc(Oc3nc4cnccc4s3)cc2)CC1` [Example 161, N-(2-Hydroxy-1,1-dimethylethyl)-1-(2-{[4-([1,3]thiazolo[4,5-c]pyridin-2-yloxy)phenyl]oxy}ethyl)piperidine-4-carboxamide], for which the 50% inhibitory concentration (IC50) is 535 nM.
Turning to `CC(=O)N1[C@@H]2CC[C@H]1C[C@H](NCCOc1ccc(Oc3nc4ncccc4s3)cc1)C2` [Example 215, meso-(3-exo)-8-Acetyl-N-{2-[4-([1,3]thiazolo[4,5-b]pyridin-2-yloxy)phenoxy]ethyl}-8-azabicyclo[3.2.1]octan-3-amine hydrochloride], the IC50 stood at 21 nM.
For the molecule `Cc1ccnc2nc(Oc3ccc(CN4[C@@H]5CC[C@H]4CN(S(C)(=O)=O)C5)cc3)sc12` [Example 205, meso-7-Methyl-2-(4-{[3-(methylsulfonyl)-3,8-diazabicyclo[3.2.1]oct-8-yl]methyl}phenoxy)[1,3]thiazolo[4,5-b]pyridine], the IC50 amounted to 49 nM.
`c1cnc2nc(Oc3ccc(OCCNC4CC4)cc3)sc2c1` [Example 139, N-{2-[4-([1,3]Thiazolo[4,5-b]pyridin-2-yloxy)phenoxy]ethyl}cyclopropanamine]: the IC50 came to 41 nM.
To `CC(=O)N1C[C@@H]2C[C@H]1CN2Cc1ccc(Oc2nc3c(C)ccnc3s2)cc1` [Example 281, 2-(4-{[(1S,4S)-5-Acetyl-2,5-diazabicyclo[2.2.1]hept-2-yl]methyl}phenoxy)-7-methyl[1,3]thiazolo[5,4-b]pyridine] belongs > 10000 nM.
With `CN1CCN(Cc2ccc(Oc3nc4cnccc4s3)cc2)CC1=O` [Example 224, 1-Methyl-4-[4-([1,3]thiazolo[4,5-c]pyridin-2-yloxy)benzyl]piperazin-2-one], the IC50 was found to be 4850 nM.
With `NC(=O)N1C[C@H]2C[C@@H]1CN2Cc1ccc(Oc2nc3ncc(Cl)cc3s2)cc1` [Example 191, (1R,4R)-5-({4-[(6-Chloro[1,3]thiazolo[4,5-b]pyridin-2-yl)oxy]phenyl}methyl)-2,5-diazabicyclo[2.2.1]heptane-2-carboxamide] the figure was 72 nM; with `CN(CCN1CCCCC1)Cc1ccc(Oc2nc3ncccc3s2)cc1` [Example 271, N-Methyl-2-piperidin-1-yl-N-[4-([1,3]thiazolo[4,5-b]pyridin-2-yloxy)benzyl]ethanamine], 293 nM; with `OCCN(CCOc1ccc(Oc2nc3cccnc3s2)cc1)CC1CC1` [Example 157, 2-[(Cyclopropylmethyl){2-[4-([1,3]thiazolo[5,4-b]pyridin-2-yloxy)phenoxy]ethyl}amino]ethanol], 114 nM.
On to `NC(=O)N[C@@H]1C[C@H]2CC[C@@H](C1)N2Cc1ccc(Oc2nc3ccncc3s2)cc1` [Example 200, meso-1-{(3-exo)-8-[4-([1,3]Thiazolo[5,4-c]pyridin-2-yloxy)benzyl]-8-azabicyclo[3.2.1]oct-3-yl}urea], for which the IC50 is 374 nM.
`COc1ccccc1C1CCN(CCOc2ccc(Oc3nc4cccnc4s3)cc2)CC1` [Example 41, 2-(4-{2-[4-(2-Methoxyphenyl)piperidin-1-yl]ethoxy}phenoxy)[1,3]thiazolo[5,4-b]pyridine]: the half-inhibitory concentration (IC50) is 340 nM.
As for `OC1(c2ccc(Cl)cc2)CCN(CCOc2ccc(Oc3nc4cccnc4s3)cc2)CC1` [Example 39, 4-(4-Chlorophenyl)-1-{2-[4-([1,3]thiazolo[5,4-b]pyridin-2-yloxy)phenoxy]ethyl}piperidin-4-ol], the IC50 was 260 nM.
In the case of `NC(=O)N1C[C@@H]2C[C@H]1CN2CCOc1ccc(Oc2nc3cccnc3s2)cc1` [Example 21, (1S,4S)-5-{2-[4-([1,3]Thiazolo[5,4-b]pyridin-2-yloxy)phenoxy]ethyl}-2,5-diazabicyclo[2.2.1]heptane-2-carboxamide], the IC50 turned out to be 160 nM.
Regarding `O=C(c1ccc(Cl)cc1)C1CCN(CCc2ccc(Oc3nc4cnccc4s3)cc2)CC1` [Example 195, (4-Chlorophenyl)(1-{2-[4-([1,3]thiazolo[4,5-c]pyridin-2-yloxy)phenyl]ethyl}piperidin-4-yl)methanone], the IC50 was found to be 1370 nM.
With `FC1CCN(CCc2ccc(Oc3nc4nccnc4s3)cc2)CC1` [Example 180, 2-({4-[2-(4-Fluoropiperidin-1-yl)ethyl]phenyl}oxy)[1,3]thiazolo[4,5-b]pyrazine] the figure was 71 nM.
In the case of `Cc1ccnc2nc(Oc3ccc(OCCN4[C@@H]5CC[C@H]4C[C@@H](NC(=O)CN)C5)cc3)sc12` [Example 166, meso-N-{(3-endo)-8-[2-({4-[(7-Methyl[1,3]thiazolo[4,5-b]pyridin-2-yl)oxy]phenyl}oxy)ethyl]-8-azabicyclo[3.2.1]oct-3-yl}glycinamide hydrochloride], the IC50 came out at 114 nM.
Take `NC(=O)C1CCN(Cc2ccc(Oc3nc4cccnc4s3)cc2)CC1` [Example 113, 1-[4-([1,3]Thiazolo[5,4-b]pyridin-2-yloxy)benzyl]piperidine-4-carboxamide]: the IC50 is 570 nM.
On to `O=C(c1ccco1)N1CCN(CCOc2ccc(Oc3nc4ncc(Cl)cc4s3)cc2)CC1` [Example 147, 6-Chloro-2-(4-{2-[4-(furan-2-ylcarbonyl)piperazin-1-yl]ethoxy}phenoxy)[1,3]thiazolo[4,5-b]pyridine], for which the IC50 was 252 nM.
To `Cc1ccnc2sc(Oc3ccc(CN4CCCCC4)cc3)nc12` [Example 280, 7-Methyl-2-[4-(piperidin-1-ylmethyl)phenoxy][1,3]thiazolo[5,4-b]pyridine] belongs > 10000 nM.
For `CC(=O)N1CC(CN(C)Cc2ccc(Oc3nc4ncc(Cl)cc4s3)cc2)C1` [Example 247, 1-(1-Acetylazetidin-3-yl)-N-{4-[(6-chloro[1,3]thiazolo[4,5-b]pyridin-2-yl)oxy]benzyl}-N-methylmethanamine], the IC50 came out at 33 nM.
On to `O=C(Cc1cccs1)N1CCN(Cc2ccc(Oc3nc4nccnc4s3)cc2)CC1` [Example 173, 2-[(4-{[4-(2-Thienylacetyl)piperazin-1-yl]methyl}phenyl)oxy][1,3]thiazolo[4,5-b]pyrazine], for which the IC50 was 388 nM.
With `c1ccc2c(c1)CCCN2CCOc1ccc(Oc2nc3ncccc3s2)cc1` [Example 7, 1-{2-[4-([1,3]Thiazolo[4,5-b]pyridin-2-yloxy)phenoxy]ethyl}-1,2,3,4-tetrahydroquinoline] the figure was 310 nM; with `CC(=O)N1[C@@H]2CC[C@H]1CN(CCc1ccc(Oc3nc4nccc(C)c4s3)cc1)C2` [Example 209, meso-2-(4-{2-[8-Acetyl-3,8-diazabicyclo[3.2.1]oct-3-yl]ethyl}phenoxy)-7-methyl[1,3]thiazolo[4,5-b]pyridine], 157 nM; with `c1cnc2sc(Oc3ccc(OCCN4CCOCC4)cc3)nc2n1` [Example 150, 2-[4-(2-Morpholin-4-ylethoxy)phenoxy][1,3]thiazolo[4,5-b]pyrazine], 602 nM.
For `CC(=O)N1[C@@H]2CC[C@H]1C[C@H](NCc1ccc(Oc3nc4ncccc4s3)cc1)C2` [Example 170, meso-(3-exo)-8-Acetyl-N-{[4-([1,3]thiazolo[4,5-b]pyridin-2-yloxy)phenyl]methyl}-8-azabicyclo[3.2.1]octan-3-amine], the IC50 was determined as 29 nM.
As for `O=C(NC1CCN(CCc2ccc(Oc3nc4ccncc4s3)cc2)CC1)C1CC1` [Example 192, N-(1-{2-[4-([1,3]Thiazolo[5,4-c]pyridin-2-yloxy)phenyl]ethyl}piperidin-4-yl)cyclopropanecarboxamide], the IC50 is 507 nM.
`CC(=O)N1C[C@@H]2C[C@H]1CN2CCOc1ccc(Oc2nc3cccnc3s2)cc1` [Example 20, 2-(4-{2-[(1S,4S)-5-Acetyl-2,5-diazabicyclo[2.2.1]hept-2-yl]ethoxy}phenoxy)[1,3]thiazolo[5,4-b]pyridine]: the IC50 was determined as 130 nM.
